Measurements from ChEMBL document CHEMBL5113384, “Small-molecule inhibitors targeting small ubiquitin-like modifier pathway for the treatment of cancers and other diseases” (Eur J Med Chem, 2022).

Experiments:
[1] = Inhibition of His-tagged SUMO1/SUMO E1 /GST-tagged Aos1/Uba2/His-tagged Ubc9 (unknown origin)-mediated recombinant His/T7-tagged RanGAP1-C-terminal fragment SUMOylation assessed as change in chemical shift perturbation by 1H,15N HSQC NMR spectroscopy analysis; parameters: species or system Homo sapiens
[2] = Inhibition of His-tagged SUMO1/SUMO E1 /His-tagged Ubc9 (unknown origin)-mediated […] SUMOylation using FL-AR as substrate incubated for 90 mins in presence of ATP by peptide microarray-based fluorescence assay; parameters: species or system Homo sapiens
[3] = (§1) Inhibition of His-tagged SUMO1/GST-tagged Aos1/Uba2/His-tagged Ubc9 (unknown origin)-mediated recombinant His/T7-tagged RanGAP1-C-terminal fragment SUMOylation expressed in Escherichia coli BL21 (DE3) assessed as reduction in Ubc9-SUMO level in presence of ATP by SDS-PAGE based immunoblotting analysis; parameters: species or system Homo sapiens
[4] = Inhibition of Plasmodium falciparum SENP1 using QTGG-AFC as substrate by fluorescence based analysis
[5] = Inhibition of His-tagged SUMO/SAE /Ubc9 (unknown origin)-mediated recombinant 6His-tagged RanGAP1 SUMOylation in presence of ATP by HTRF analysis; parameters: species or system Homo sapiens
[6] = as §1, with “SUMO1/SUMO E1 /GST-tagged” for “SUMO1/GST-tagged”, “level measured upto 2 hrs” for “level”, “fluorescence polarization” for “SDS-PAGE based immunoblotting”; parameters: species or system Homo sapiens
[7] = Inhibition of SUMO E1 (unknown origin); parameters: species or system Homo sapiens
[8] = biological target: T1, NEDD8 activating enzyme (Homo sapiens, UniProt Q8TBC4); experiment: Inhibition of NAE (unknown origin); format: protein-complex assay
T1 sequence (Q8TBC4 whole entry): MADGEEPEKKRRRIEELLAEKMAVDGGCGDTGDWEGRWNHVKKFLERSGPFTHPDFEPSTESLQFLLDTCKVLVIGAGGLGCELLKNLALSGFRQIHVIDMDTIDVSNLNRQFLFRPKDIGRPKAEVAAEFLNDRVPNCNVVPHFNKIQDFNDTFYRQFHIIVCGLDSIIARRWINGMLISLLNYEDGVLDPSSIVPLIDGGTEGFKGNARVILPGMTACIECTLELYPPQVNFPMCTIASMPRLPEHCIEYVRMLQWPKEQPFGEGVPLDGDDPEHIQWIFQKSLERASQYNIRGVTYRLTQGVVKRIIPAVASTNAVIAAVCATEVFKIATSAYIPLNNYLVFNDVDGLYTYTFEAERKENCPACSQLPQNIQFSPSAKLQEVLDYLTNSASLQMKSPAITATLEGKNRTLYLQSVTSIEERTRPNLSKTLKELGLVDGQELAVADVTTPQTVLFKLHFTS
T1 sequence (Q13564 whole entry): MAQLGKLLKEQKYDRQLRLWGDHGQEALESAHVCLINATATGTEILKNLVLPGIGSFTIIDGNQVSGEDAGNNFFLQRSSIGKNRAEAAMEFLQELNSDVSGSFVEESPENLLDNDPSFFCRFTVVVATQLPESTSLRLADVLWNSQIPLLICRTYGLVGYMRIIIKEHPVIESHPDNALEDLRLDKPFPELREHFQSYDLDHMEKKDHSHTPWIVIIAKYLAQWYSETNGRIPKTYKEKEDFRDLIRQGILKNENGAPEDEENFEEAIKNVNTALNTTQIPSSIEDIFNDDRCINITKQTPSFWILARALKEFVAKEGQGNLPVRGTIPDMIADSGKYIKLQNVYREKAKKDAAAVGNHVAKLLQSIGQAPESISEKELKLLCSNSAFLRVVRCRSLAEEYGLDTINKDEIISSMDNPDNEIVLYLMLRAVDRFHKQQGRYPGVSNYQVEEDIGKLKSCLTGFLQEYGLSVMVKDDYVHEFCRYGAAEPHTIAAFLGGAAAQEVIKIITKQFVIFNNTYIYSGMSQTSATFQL

[9] = Inhibition of UAE (unknown origin); parameters: species or system Homo sapiens
[10] = test system: LNCaP; experiment: Antiproliferative activity against androgen-sensitive human LNCaP cells assessed as cell growth inhibition incubated for 48 hrs by MTT assay; format: functional, cell-based
[11] = test system: PC-3; experiment: Antiproliferative activity against human PC-3 cells assessed as cell growth inhibition incubated for 48 hrs by MTT assay; format: functional, cell-based; conditions: PC-3, 48 h
[12] = Inhibition of His-tagged SUMO1/SUMO E1 /His-tagged Ubc9 (unknown origin)-mediated SUMOylation using FL-AR as substrate incubated for 90 mins in presence of ATP by Western blot analysis; parameters: species or system Homo sapiens
[13] = Inhibition of His-tagged SUMO1/SUMO E1 /GST-tagged Aos1/Uba2/His-tagged Ubc9 (unknown origin)-mediated recombinant His/T7-tagged RanGAP1-C2-terminal fragment SUMOylation in presence of ATP by SDS-PAGE based immunoblotting analysis; parameters: species or system Homo sapiens

`CCOC(=O)CCc1ccc(-c2ccccc2O)c(O)c1` showed an IC50 [1] of 3 mM.

With `c1coc(-c2cc(CNc3ncnc4sc5cnccc5c34)no2)c1` the IC50 [2] was 74 µM.

In the case of `C[C@@H]1O[C@@H](O[C@@H]2C[C@H](c3ccc4c(c3O)C(=O)C3=C(C4=O)[C@@]4(O[C@H]5CC[C@H](O)[C@H](C)O5)C(=O)C[C@](C)(O)C[C@@]4(O)C=C3)O[C@H](C)[C@H]2O)CC[C@@H]1O[C@H]1C[C@@H](O)[C@H](O)[C@@H](C)O1`, the IC50 [3] is reported as 11700 nM.

For `Oc1ccccc1-c1ccccc1O`, the IC50 [1] was 5.8 mM.

With `O=C(O)CN(NC(=O)c1ccc(CNC(=O)c2cccc(C(=O)O)c2)cc1)C(=O)[C@H]1O[C@@H]1C(=O)C(Cc1cccc2ccccc12)Cc1cccc2ccccc12` the IC50 [4] was 17.9 µM.

`CCCCCCCCCCCCCCCc1cccc(O)c1C(=O)O` [ANACARDIC ACID] gave an IC50 [3] of 2200 nM.

For `COC(=O)C1=C(C(=O)OC)[C@@]2([C@@H](Cc3ccc(C)cc3)Nc3ccccc3)C=C[C@@H]1O2`, the IC50 [5] was 200 nM.

`COc1ccc(NC(=O)[C@H](CCCN)Nc2cc(C)nc(NCCc3cccs3)n2)cc1` gave an IC50 [6] of 12.5 µM.

In the case of `CCCCCC/C=C\CCCCCCCc1cccc(O)c1C(=O)O` [GINGKOLIC ACID], the IC50 [3] is reported as 3000 nM.

Work on `NS(=O)(=O)OC[C@@H]1C[C@@H](Nc2ncncc2C(=O)c2ccn(Cc3cccc(Br)c3)n2)C[C@@H]1O` yielded an IC50 [7] of 0.003 µM, an IC50 [8] of 32 µM and an IC50 [9] greater than 100 µM.

`NS(=O)(=O)OC[C@@H]1C[C@@H](n2ccc3c(NC4CCc5ccccc54)ncnc32)C[C@@H]1O` (stereo partly drawn) showed an IC50 [7] of 8.2 µM.

In the case of `O=C(O)c1cccc(C(=O)NCc2ccc(C(=O)NNC(=O)[C@H]3O[C@@H]3C(=O)C(Cc3cccc4ccccc34)Cc3cccc4ccccc34)cc2)c1`, the IC50 [4] is reported as 16.2 µM.

`CC(C)[C@]12O[C@H]1[C@@H]1O[C@]13[C@]1(O[C@H]1C[C@H]1C4=C(CC[C@@]13C)C(=O)OC4)[C@@H]2O` [TRIPTOLIDE] gave an IC50 [10] of 9.7 nM and an IC50 [11] of 20.3 nM.

`O=c1cc(-c2ccc(O)c(O)c2O)oc2ccccc12` gave an IC50 [12] of 6 µM.

With `CO/C(=C/C(=O)O)[C@H]1c2cc3ccc(-c4ccc5cc6c(c(O)c5c4O)C(=O)C[C@@](C)(O)[C@H]6/C(=C\C(=O)O)OC)c(O)c3c(O)c2C(=O)C[C@@]1(C)O` the IC50 [13] was 4.4 µM.
